# Experimental data published in patent US12091402B2 (Avilar Therapeutics, Inc., priority 2021, dated 2024).
# Where a SMILES comes first, the peptide text is derived from it. Bridges are numbered along the chain shown (N, C = ends). [ ]: non-standard residue; d: D form. Pro(4S-NH2) = N[C@@H]1CN[C@H](C(=O)O)C1
# Molecular target: T1, ASGPR (Homo sapiens, UniProt P07306)
# T1 sequence (P07306 1-291): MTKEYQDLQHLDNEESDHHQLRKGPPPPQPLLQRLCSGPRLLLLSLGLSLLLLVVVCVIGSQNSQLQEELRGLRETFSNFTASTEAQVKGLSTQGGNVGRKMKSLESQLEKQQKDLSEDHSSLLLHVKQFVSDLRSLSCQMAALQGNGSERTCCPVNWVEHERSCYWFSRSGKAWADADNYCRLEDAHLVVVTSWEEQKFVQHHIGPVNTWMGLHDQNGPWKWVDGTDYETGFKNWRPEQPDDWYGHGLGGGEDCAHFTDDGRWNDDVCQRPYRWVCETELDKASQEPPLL
# Assay: Affinity to ASGPR by surface plasmon resonance (SPR)
# Conditions: not given
row,Compound,Kd [nM]
1,"C=CCO[C@H]1O[C@H](CN=[N+]=[N-])[C@H](O)[C@H](O)[C@H]1Nc1nccc(C(F)(F)F)n1 [A72, (2R,3R,4R,5R,6S)-6-(allyloxy)-2-(azidomethyl)-5-((4-(trifluoromethyl)pyrimidin-2-yl)amino)tetrahydro-2H-pyran-3,4-diol]",< 1000
2,"COc1cc(C(F)(F)F)nc(N[C@H]2[C@H]3OC[C@](CO)(O3)[C@H](O)[C@@H]2O)n1 [A46, (1S,2R,3R,4R,5S)-1-(hydroxymethyl)-4-((4-methoxy-6-(trifluoromethyl)pyrimidin-2-yl)amino)-6,8-dioxabicyclo[3.2.1]octane-2,3-diol]",< 1000
3,"O=C(O)COCCOCCOCC(=O)NC(COCCC(=O)NCCOCCOCCOCCOC[C@H]1OC[C@H](Nc2cncc(C(F)(F)F)n2)[C@@H](O)[C@H]1O)COCCC(=O)NCCOCCOCCOCCOC[C@H]1OC[C@H](Nc2cncc(C(F)(F)F)n2)[C@@H](O)[C@H]1O [A26, 1-((2R,3R,4R,5S)-3,4-dihydroxy-5-((6-(trifluoromethyl)pyrazin-2-yl)amino)tetrahydro-2H-pyran-2-yl)-20-(1-((2R,3R,4R,5S)-3,4-dihydroxy-5-((6-(trifluoromethyl)pyrazin-2-yl)amino)tetrahydro-2H-pyran-2-yl)-15-oxo-2,5,8,11,18-pentaoxa-14-azanonadecan-19-yl)-15,22-dioxo-2,5,8,11,18,24,27,30-octaoxa-14,21-diazadotriacontan-32-oic acid]",< 100
4,"O=C(O)COc1ccc(COC[C@H]2OC[C@H](Nc3cncc(C(F)(F)F)n3)[C@@H](O)[C@H]2O)cc1 [A19, 2-(4-((((2R,3R,4R,5S)-3,4-dihydroxy-5-((6-(trifluoromethyl)pyrazin-2-yl)amino)tetrahydro-2H-pyran-2-yl)methoxy)methyl)phenoxy)acetic acid]",< 100
5,"N#Cc1cc(N[C@H]2[C@H]3OC[C@](CO)(O3)[C@H](O)[C@@H]2O)cnc1Cl [A41, 2-chloro-5-[[(1S,2R,3R,4R,5S)-2,3-dihydroxy-1-(hydroxymethyl)-6,8-dioxabicyclo[3.2.1]octan-4-yl]amino]pyridine-3-carbonitrile]",1000 to 10000
6,"OC[C@H]1OCC(Nc2cc(C(F)(F)F)[nH]n2)[C@@H](O)[C@H]1O (stereo in doubt) [A93, (2R,3R,4R,5S)-2-(hydroxymethyl)-5-((5-(trifluoromethyl)-1H-pyrazol-3-yl)amino)tetrahydro-2H-pyran-3,4-diol]",> 100
7,"COCCO[C@@H]1O[C@H](CO)[C@H](O)[C@H](O)[C@H]1NC(=O)C(F)(F)F [A104, N-((2R,3R,4R,5R,6R)-4,5-dihydroxy-6-(hydroxymethyl)-2-(2-methoxyethoxy)tetrahydro-2H-pyran-3-yl)-2,2,2-trifluoroacetamide]",1000 to 10000

# Molecular target: IgG
# Assay: Affinity to IgG by surface plasmon resonance (SPR)
# Type: binding
# Conditions: Biacore 8K, 25° C., IgG on CM5 chip; read-out: IgG SPR Binding Kd
# Description: Immobilization levels ranging from 1000-1300 resonance units (RU) are obtained. The running buffer is 10 mM HEPES, pH 7.4, 400 mM NaCl, 0.005% P20, […].
row,Compound,Kd [nM]
1,C#CCCCC(=O)NCCOCCOCCOCCOCCNC(=O)CC[C@@H]1NC(=O)CNC(=O)[C@H](CC(C)C)NC(=O)[C@H](Cc2cnc[nH]2)NC(=O)[C@H](Cc2c[nH]c3ccccc23)NC(=O)[C@H](C)NC(=O)[C@@H](NC(=O)[C@@H](N)CC(=O)O)CSSC[C@@H](C(=O)N[C@H](C(N)=O)[C@@H](C)O)NC(=O)[C@H](Cc2c[nH]c3ccccc23)NC(=O)[C@H](C(C)C)NC(=O)[C@H](CC(C)C)NC1=O [Intermediate 2],< 100
2,C#CCCCC(=O)NCCOCCOCCC(=O)N[C@H]1C[C@H]2C(=O)N[C@@H](CC(=O)O)C(=O)N[C@H]3CSSC[C@H](NC(=O)[C@H](Cc4c[nH]c5ccccc45)NC(=O)[C@H](C(C)C)NC(=O)[C@H](CC(C)C)NC(=O)[C@H](CCC(=O)O)NC(=O)CNC(=O)[C@H](CC(C)C)NC(=O)[C@H](Cc4cnc[nH]4)NC(=O)[C@H](Cc4c[nH]c5ccccc45)NC(=O)[C@H](C)NC3=O)C(=O)N[C@@H]([C@@H](C)O)C(=O)N3CCC[C@@H]3C(=O)N2C1 [Intermediate 6],< 100
3,CC(C)C[C@@H]1NC(=O)[C@H](Cc2cnc[nH]2)NC(=O)[C@H](Cc2c[nH]c3ccccc23)NC(=O)[C@H](C)NC(=O)[C@@H]2CSSC[C@H](NC(=O)[C@@H](Cc3c[nH]c4ccccc34)NC(=O)[C@H](C(C)C)NC(=O)[C@H](CC(C)C)NC(=O)[C@H](CCC(=O)O)NC(=O)CNC1=O)C(=O)N[C@@H]([C@@H](C)O)C(=O)N1CCC[C@@H]1C(=O)N1C[C@@H](N)C[C@H]1C(=O)N[C@@H](CC(=O)O)C(=O)N2 (stereo in doubt) [Intermediate 24],< 100
4,CC(C)C[C@@H]1NC(=O)[C@H](C)NC(=O)CNC(=O)[C@H](CC(C)C)NC(=O)[C@H](Cc2cnc[nH]2)NC(=O)[C@H](Cc2c[nH]c3ccccc23)NC(=O)[C@H](C)NC(=O)[C@@H]2CSSC[C@H](NC(=O)[C@H](Cc3c[nH]c4ccccc34)NC(=O)[C@H](C(C)C)NC1=O)C(=O)N[C@@H]([C@@H](C)O)C(=O)N1CCC[C@@H]1C(=O)N1C[C@@H](N)C[C@H]1C(=O)N[C@@H](CC(N)=O)C(=O)N2 [Intermediate 28] (cyclo(ALVWCT[dP][Pro(4S-NH2)]NCAWHLG); disulfide 5-10),< 100
5,CC(C)C[C@@H]1NC(=O)[C@H](Cc2cnc[nH]2)NC(=O)[C@H](Cc2c[nH]c3ccccc23)NC(=O)[C@H](C)NC(=O)[C@@H]2CSSC[C@H](NC(=O)[C@H](Cc3c[nH]c4ccccc34)NC(=O)[C@H](C(C)C)NC(=O)[C@H](CC(C)C)NC(=O)[C@H](CCC(N)=O)NC(=O)CNC1=O)C(=O)N[C@@H]([C@@H](C)O)C(=O)N1CCC[C@@H]1C(=O)N1C[C@@H](N)C[C@H]1C(=O)N[C@@H](CC(=O)O)C(=O)N2 [Intermediate 18] (cyclo(AWHLGQLVWCT[dP][Pro(4S-NH2)]DC); disulfide 10-15),< 100
6,CC(C)C[C@@H]1NC(=O)[C@H](Cc2cnc[nH]2)NC(=O)[C@H](Cc2c[nH]c3ccccc23)NC(=O)[C@H](C)NC(=O)[C@@H]2CSSC[C@H](NC(=O)[C@H](Cc3c[nH]c4ccccc34)NC(=O)[C@H](C(C)C)NC(=O)[C@H](CC(C)C)NC(=O)[C@H](CCC(=O)O)NC(=O)CNC1=O)C(=O)N[C@@H]([C@@H](C)O)C(=O)N1CCC[C@@H]1C(=O)N1C[C@@H](N)C[C@H]1C(=O)N[C@@H](CC(=O)O)C(=O)N2 [Intermediate 5],< 100

# Same assay, conditions: SPR; read-out: IgG KD
row,Compound,Kd [nM]
1,CC(C)C[C@@H]1NC(=O)[C@H](Cc2cnc[nH]2)NC(=O)[C@H](Cc2c[nH]c3ccccc23)NC(=O)[C@H](C)NC(=O)[C@@H]2CSSC[C@H](NC(=O)[C@@H](Cc3c[nH]c4ccccc34)NC(=O)[C@H](C(C)C)NC(=O)[C@H](CC(C)C)NC(=O)[C@H](CCC(=O)O)NC(=O)CNC1=O)C(=O)N[C@@H]([C@@H](C)O)C(=O)N1CCC[C@@H]1C(=O)N1C[C@@H](N)C[C@H]1C(=O)N[C@@H](CC(=O)O)C(=O)N2 (stereo in doubt) [Intermediate 24],< 100
2,CC(C)C[C@@H]1NC(=O)[C@H](C)NC(=O)CNC(=O)[C@H](CC(C)C)NC(=O)[C@H](Cc2cnc[nH]2)NC(=O)[C@H](Cc2c[nH]c3ccccc23)NC(=O)[C@H](C)NC(=O)[C@@H]2CSSC[C@H](NC(=O)[C@H](Cc3c[nH]c4ccccc34)NC(=O)[C@H](C(C)C)NC1=O)C(=O)N[C@@H]([C@@H](C)O)C(=O)N1CCC[C@@H]1C(=O)N1C[C@@H](N)C[C@H]1C(=O)N[C@@H](CC(N)=O)C(=O)N2 [Intermediate 28] (cyclo(ALVWCT[dP][Pro(4S-NH2)]NCAWHLG); disulfide 5-10),< 100
3,CC(C)C[C@@H]1NC(=O)[C@H](Cc2cnc[nH]2)NC(=O)[C@H](Cc2c[nH]c3ccccc23)NC(=O)[C@H](C)NC(=O)[C@@H]2CC/C=C/C[C@H](NC(=O)[C@H](Cc3c[nH]c4ccccc34)NC(=O)[C@H](C(C)C)NC(=O)[C@H](CC(C)C)NC(=O)[C@H](CCC(=O)O)NC(=O)CNC1=O)C(=O)N[C@@H]([C@@H](C)O)C(=O)N1CCC[C@@H]1C(=O)N1CCC[C@H]1C(=O)N[C@@H](CC(=O)O)C(=O)N2,< 100
4,CC(C)C[C@@H]1NC(=O)[C@H](Cc2cnc[nH]2)NC(=O)[C@H](Cc2c[nH]c3ccccc23)NC(=O)[C@H](C)NC(=O)[C@@H]2CSSC[C@H](NC(=O)[C@H](Cc3c[nH]c4ccccc34)NC(=O)[C@H](C(C)C)NC(=O)[C@H](CC(C)C)NC(=O)[C@H](CCC(N)=O)NC(=O)CNC1=O)C(=O)N[C@@H]([C@@H](C)O)C(=O)N1CCC[C@@H]1C(=O)N1C[C@@H](N)C[C@H]1C(=O)N[C@@H](CC(=O)O)C(=O)N2 [Intermediate 18] (cyclo(AWHLGQLVWCT[dP][Pro(4S-NH2)]DC); disulfide 10-15),< 100
5,C#CCCCC(=O)N[C@H]1C[C@H]2C(=O)N[C@@H](CC(=O)O)C(=O)N[C@H]3CSSC[C@H](NC(=O)[C@H](Cc4c[nH]c5ccccc45)NC(=O)[C@H](C(C)C)NC(=O)[C@H](CC(C)C)NC(=O)[C@H](CCC(=O)O)NC(=O)CNC(=O)[C@H](CC(C)C)NC(=O)[C@H](Cc4cnc[nH]4)NC(=O)[C@H](Cc4c[nH]c5ccccc45)NC(=O)[C@H](C)NC3=O)C(=O)N[C@@H]([C@@H](C)O)C(=O)N3CCC[C@@H]3C(=O)N2C1 [Intermediate 8],< 100
